Test results taken from the supplement of paper PMC10307832.

Compound: CC1=CN=C(N=C1C2=CNC(=C2)C(=O)N[C@H](CO)C3=CC(=CC=C3)Cl)NC4=C(C=C(C=C4)F)Cl [VX-11e] + Cc1cc(Nc2cc(N3CCN(C)CC3)nc(Sc3ccc(NC(=O)C4CC4)cc3)n2)n[nH]1 [Tozasertib] (partner 0.1 µM)
Test: relative viability (nuclei count vs DMSO), 5 days (fraction); higher = more cells survive
Procedure, shortened: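 Lung cancer cell lines, seeded in 1536-well plates, were treated the following day by pin tool with a single drug or with five library-drug doses (not always all listed) in √10 steps on top of a fixed anchor-drug dose. Cells were fixed and nuclei stained in one step after 5 days, and nuclei were counted. Relative viability is the nuclei count for treated wells divided by that for vehicle wells, reported as medians of duplicate plates.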

| Cell Line | relative viability (first compound 0.04 µM) | relative viability (first compound 0.1265 µM) | relative viability (first compound 0.4 µM) | relative viability (first compound 1.265 µM) | relative viability (first compound 4 µM) |
| --- | --- | --- | --- | --- | --- |
| 201T | 0.99 | 0.923 | 0.941 | 0.909 | 0.774 |
| A-427 | 0.181 | 0.18 | 0.132 | 0.143 | 0.16 |
| ABC-1 | 0.137 | 0.219 | 0.175 | 0.123 | 0.188 |
| BEN |  | 0.477 | 0.642 | 0.456 | 0.417 |
| CAL-12T | 0.384 | 0.25 | 0.26 | 0.247 | 0.155 |
| COR-L23 | 0.157 | 0.142 | 0.138 | 0.124 | 0.127 |
| COR-L 105 | 0.341 | 0.342 | 0.367 | 0.721 | 0.268 |
| ChaGo-K-1 | 0.219 | 0.233 | 0.234 | 0.188 | 0.186 |
| EKVX | 0.385 | 0.398 | 0.342 | 0.257 | 0.163 |
| EMC-BAC-2 | 0.313 | 0.272 | 0.373 | 0.382 | 0.353 |
| EPLC-272H | 0.224 | 0.262 |  | 0.193 | 0.205 |
| H3255 | 0.732 | 0.698 | 0.562 | 0.595 | 0.724 |
| HARA | 0.106 | 0.118 | 0.119 | 0.0971 | 0.0712 |
| HCC-15 | 0.428 | 0.35 | 0.306 | 0.153 | 0.172 |
| HCC-44 | 0.975 | 0.863 | 0.182 | 0.396 | 0.549 |
| HCC-78 |  | 0.538 | 0.386 | 0.324 | 0.487 |
| HCC-366 | 0.12 | 0.0759 |  | 0.0517 | 0.0473 |
| HCC-827 | 0.396 | 0.401 | 0.421 | 0.401 | 0.347 |
| HOP-62 | 0.344 | 0.368 | 0.402 | 0.321 | 0.24 |
| LC-2-ad | 0.522 | 0.45 | 0.319 | 0.383 | 0.369 |
| LCLC-97TM1 | 0.21 | 0.223 | 0.2 | 0.166 | 0.179 |
| LCLC-103H | 0.467 | 0.412 | 0.48 | 0.3 | 0.4 |
| LK-2 | 0.148 | 0.182 | 0.22 | 0.185 | 0.159 |
| LOU-NH91 | 0.807 | 0.647 | 0.384 | 0.593 | 0.618 |

| Cell Line | relative viability (first compound 0.04 µM) | relative viability (first compound 0.1265 µM) | relative viability (first compound 0.4 µM) | relative viability (first compound 1.265 µM) | relative viability (first compound 4 µM) |
| --- | --- | --- | --- | --- | --- |
| LU99A | 0.25 | 0.246 | 0.269 | 0.244 | 0.22 |
| LXF-289 | 0.223 | 0.177 | 0.222 | 0.189 | 0.141 |
| NCI-H23 | 0.321 | 0.322 |  | 0.216 | 0.168 |
| NCI-H322M | 0.444 | 0.444 | 0.352 | 0.453 | 0.343 |
| NCI-H358 | 0.113 | 0.0919 | 0.102 | 0.096 | 0.0812 |
| NCI-H441 | 0.753 | 0.55 |  | 0.585 | 0.453 |
| NCI-H460 | 0.678 | 0.268 | 0.0898 | 0.031 | 0.0316 |
| NCI-H520 | 0.464 | 0.401 | 0.397 | 0.468 | 0.4 |
| NCI-H522 | 0.532 | 0.56 | 0.553 | 0.467 | 0.503 |
| NCI-H596 | 0.912 | 0.815 | 0.845 | 0.758 | 0.446 |
| NCI-H647 | 0.254 | 0.301 | 0.246 | 0.205 | 0.0828 |
| NCI-H650 | 0.828 | 0.648 | 0.683 | 0.509 | 0.511 |
| NCI-H661 | 0.323 | 0.354 | 0.349 | 0.382 | 0.379 |
| NCI-H727 | 0.66 | 0.48 | 0.45 | 0.429 | 0.325 |
| NCI-H838 | 0.233 | 0.279 | 0.263 | 0.213 | 0.193 |
| NCI-H1355 | 0.516 | 0.544 | 0.457 | 0.346 | 0.282 |
| NCI-H1395 | 0.75 | 0.688 | 0.689 | 0.781 | 0.547 |
| NCI-H1437 | 0.421 | 0.379 | 0.345 | 0.335 | 0.159 |
| NCI-H1648 | 0.515 | 0.378 | 0.566 | 0.292 | 0.318 |
| NCI-H1650 | 0.426 | 0.309 |  | 0.261 | 0.203 |
| NCI-H1651 | 0.898 | 0.523 | 0.536 | 0.38 | 0.253 |
| NCI-H1666 | 0.561 | 0.584 | 0.49 | 0.52 | 0.388 |
| NCI-H1734 | 0.289 | 0.209 | 0.234 | 0.23 | 0.192 |
| NCI-H1755 | 0.59 | 0.487 | 0.513 | 0.527 | 0.402 |

| Cell Line | relative viability (first compound 0.04 µM) | relative viability (first compound 0.1265 µM) | relative viability (first compound 0.4 µM) | relative viability (first compound 1.265 µM) | relative viability (first compound 4 µM) |
| --- | --- | --- | --- | --- | --- |
| NCI-H1793 | 0.345 | 0.293 |  | 0.228 | 0.133 |
| NCI-H1915 | 0.42 | 0.392 | 0.401 | 0.366 | 0.295 |
| NCI-H1944 | 0.224 | 0.227 |  | 0.231 | 0.171 |
| NCI-H1975 | 0.695 | 0.526 | 0.228 | 0.216 | 0.124 |
| NCI-H1993 | 0.626 | 0.603 | 0.639 | 0.562 | 0.514 |
| NCI-H2009 | 0.714 | 0.64 | 0.591 | 0.4 | 0.171 |
| NCI-H2023 | 0.279 | 0.161 | 0.161 | 0.142 | 0.0967 |
| NCI-H2085 | 0.897 | 0.724 | 0.659 | 0.644 | 0.413 |
| NCI-H2087 | 0.28 | 0.208 |  | 0.203 | 0.167 |
| NCI-H2126 | 0.828 | 0.78 |  | 0.666 | 0.6 |
| NCI-H2170 | 0.81 | 0.687 | 0.734 | 0.69 | 0.686 |
| NCI-H2228 | 0.248 | 0.202 |  | 0.149 | 0.115 |
| NCI-H2342 | 0.422 | 0.503 | 0.498 | 0.406 | 0.416 |
| NCI-H2347 | 0.646 | 0.599 | 0.508 | 0.449 | 0.276 |
| NCI-H2405 | 0.804 | 0.757 | 0.768 | 0.779 | 0.256 |
| NCI-H3122 | 0.452 | 0.413 |  | 0.23 | 0.173 |
| PC-3 [JPC-3] | 0.892 | 0.863 | 0.829 | 0.926 | 0.729 |
| PC-14 | 0.66 | 0.469 | 0.395 | 0.331 | 0.278 |
| RERF-LC-KJ | 0.529 | 0.452 | 0.564 | 0.457 | 0.29 |
| SK-LU-1 | 0.348 | 0.298 |  | 0.338 | 0.194 |
| SK-MES-1 | 0.884 | 0.873 | 0.844 | 0.908 | 0.376 |
| SW 900 | 0.737 | 0.401 | 0.409 | 0.307 | 0.258 |
| SW 1573 | 0.237 | 0.21 | 0.224 | 0.154 | 0.11 |
| UMC-11 | 0.185 | 0.201 | 0.206 | 0.182 | 0.19 |
